From patent US20230212129A1, “QUINAZOLINE DERIVATIVES USEFUL AS SELECTIVE HDAC6 INHIBITORS” (AnnJi Pharmaceutical Co., Ltd., priority 2020, published 2023)

Assays:
[1] = test system: cisplatin-induced neuropathy; assay: Cisplatin-induced neuropathy, von Frey paw-withdrawal murine model; format: in vivo, Balb/c mice; details: oral once daily Day 16 to 29 (pregabalin 15 mg/kg one hour prior to test); vs cisplatin control; FIG. 4
Method: To understand whether COMPOUND 2 exerts neuron protective activities in cisplatin-induced neuropathy, a paw-withdrawal murine model is deployed. The 50% paw withdrawal threshold (PWT) to a static mechanical stimulus was assessed using von Frey filament and up-and-down method following the procedure described by Chaplan (1994). Mechanical allodynia, a painful sensation caused by innocuous stimuli like light touch, was assessed by the manual von Frey test once per week (on day 7, 14, 21, 28, […], and 42). The animals indicated sensation by pulling back its paw. The minimum force leading to withdrawal of the paw was regarded as the reflex threshold.
Balb/c mice weighing about 25±2 gram were given cisplatin intraperitoneally at the dose of 1.5 mg/kg for 5 consecutive days (cumulative dose of 7.5 mg/kg), followed by 5 days of recovery. The cisplatin administration cycle was repeated once more to reach a cumulative dose of 15 mg/kg to induce neuropathy. Test compounds, COMPOUND 2 and ACY1215, were orally administered once daily for 2 weeks (except for the weekends) from Day 16 to 29. Pregabalin, a drug known to provide transient pain relief, was administered at a dose of 15 mg/kg prior to each von Frey stimulus test to serve as the positive control.

[2] = test system: BioMAP Fibrosis panel (REMyoF, SAEMyoF, MyoF systems); assay: BioMAP Fibrosis panel cytokine/biomarker profiles; format: cell-based
Method: The HDAC6 inhibitor compounds were tested in a commercially available platform, BioMAP, for the cytokine profiles in related to tissue injuries. The BioMAP Fibrosis panel included 3 systems stimulated to model TGFβ and TNFα driven myofibroblast differentiation during chronic inflammation and wound healing in different tissue settings. Fibrotic disease of the kidney associated with end-stage renal failure was captured in the REMyoF system consisting of a co-culture of renal proximal tubule epithelial cells and adult fibroblasts. Interstitial lung diseases, including pulmonary fibrotic diseases such as idiopathic pulmonary fibrosis (IPF), was modeled by co-culturing small airway epithelial cells and adult fibroblasts in the SAEMyoF system. Both co-culture systems modeled the paracrine interaction between myofibroblasts and the proximally located epithelial cells, while the impact on fibroblasts alone was interrogated using the monoculture MyoF system. A signature BioMAP profile that is reflective of the changes in protein biomarker readouts within an individual system was generated for each testing compounds. Biomarker readouts selected for therapeutic and biological relevance were predictive for disease outcomes or specific drug effects, and was validated using agents with known clinical efficacy. Each readout was measured quantitatively by immune-based methods that detect protein (e.g., ELISA).

[3] = Oral pharmacokinetics (Table II); design: AUC: concentration or dose not given beside the values; details: in vivo
[4] = target: T1, HDAC6 (Homo sapiens, UniProt Q9UBN7); assay: HDAC6 activity, acetylated-AMC-labeled peptide substrate; format: biochemical
T1 construct: GST (N); host or cells: baculovirus expression system, Sf9 insect cells
T1 sequence (Q9UBN7 1-1215): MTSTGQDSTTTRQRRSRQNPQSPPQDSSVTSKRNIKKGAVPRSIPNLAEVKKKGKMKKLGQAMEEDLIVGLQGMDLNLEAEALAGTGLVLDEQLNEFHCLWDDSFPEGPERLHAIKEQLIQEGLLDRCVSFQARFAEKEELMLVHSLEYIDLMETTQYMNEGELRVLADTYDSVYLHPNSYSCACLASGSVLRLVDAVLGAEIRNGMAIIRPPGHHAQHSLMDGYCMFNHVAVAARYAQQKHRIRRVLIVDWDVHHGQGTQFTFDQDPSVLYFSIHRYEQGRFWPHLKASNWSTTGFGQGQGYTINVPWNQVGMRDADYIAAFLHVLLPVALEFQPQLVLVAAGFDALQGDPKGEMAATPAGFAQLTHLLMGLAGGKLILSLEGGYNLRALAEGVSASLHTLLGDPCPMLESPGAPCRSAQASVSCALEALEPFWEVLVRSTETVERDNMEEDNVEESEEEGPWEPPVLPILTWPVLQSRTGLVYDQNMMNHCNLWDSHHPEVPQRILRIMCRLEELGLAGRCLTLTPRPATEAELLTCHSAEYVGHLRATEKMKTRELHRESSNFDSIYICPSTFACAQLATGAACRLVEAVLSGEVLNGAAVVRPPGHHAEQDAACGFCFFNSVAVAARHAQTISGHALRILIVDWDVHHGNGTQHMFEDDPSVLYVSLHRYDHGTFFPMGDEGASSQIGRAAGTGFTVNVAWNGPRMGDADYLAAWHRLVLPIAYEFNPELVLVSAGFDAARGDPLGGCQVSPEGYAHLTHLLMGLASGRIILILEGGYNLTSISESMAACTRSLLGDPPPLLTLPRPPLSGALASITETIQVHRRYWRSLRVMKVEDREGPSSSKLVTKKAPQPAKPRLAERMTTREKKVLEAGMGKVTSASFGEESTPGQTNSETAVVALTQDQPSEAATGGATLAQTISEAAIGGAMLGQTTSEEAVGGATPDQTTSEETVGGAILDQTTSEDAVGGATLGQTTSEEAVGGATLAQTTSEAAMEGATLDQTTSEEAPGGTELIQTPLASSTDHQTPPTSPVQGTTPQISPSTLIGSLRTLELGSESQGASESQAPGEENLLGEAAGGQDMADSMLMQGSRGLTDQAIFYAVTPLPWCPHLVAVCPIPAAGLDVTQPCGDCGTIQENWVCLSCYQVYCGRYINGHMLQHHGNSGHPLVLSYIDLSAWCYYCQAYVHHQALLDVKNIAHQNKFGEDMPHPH
Method: The activities of HDAC 1 and 6 were measured by using an acetylated-AMC-labeled peptide substrate, a fluorogenic peptide from p53 residues 379-382 (RHIKKAc). The proteins involved in the assay are as the followings (1) Human HIDAC1 (Genflank Accession No. NM_004964): Full length with C-terminal GST tag, MW=79.9 kDa, expressed by baculovirus expression system in SP9 cells; and (2) Human HIDAC6 (Genflank Accession No. BC069243): Full length with N-terminal GST tag, MW=159 kDa, expressed by baculovirus expression system in Sf9 cells.

Cmax [3]: 1150 ng/mL | AUC ([3]; unit inferred): 12500 ng·h/mL | HDAC6 selectivity (A)/(B) ([4]; HDAC1 IC50 / HDAC6 IC50): 2585 | IC50 ([4]; read-out: HDAC6 IC50 (B)): 2 nM
SMILES: CCc1nc2cc(F)c(/C=C/C(=O)NO)cc2c(=O)n1-c1c(C)cccc1C [Compound 2, (E)-3-(3-(2,6-dimethylphenyl)-2-ethyl-7-fluoro-4-oxo-3,4-dihydroquinazolin-6-yl)-N-hydroxyacrylamide]
mean withdrawal threshold (50% PWT) [1]: significantly increased the mean withdrawal threshold | fibrosis-related matrix activities ([2]; BioMAP readouts): decreased TIMP-1, MMP-1, Collagen I, Collagen III, MMP-9 | inflammation-related activities ([2]; BioMAP readouts): decreased M-CSF, VCAM-1, sIL-6, MCP-1; increased I-TAC | myofibroblast activation-related activities ([2]; BioMAP readouts): decreased αSMA, N-Cadherin | tissue remodeling/wound healing activities ([2]; BioMAP readouts): decreased EGFR, tPA, uPA, bFGF, sVEGF | activities on cytokines contributing to fibrosis ([2]; compared with nintedanib): marked activities in decreasing TNF-α, IL-1, IL-6, MMP-9, VEGF, and collagen I
